We go through 16 compounds from US10442815B2, “Tricyclic heterocyclic compounds as phosphoinositide 3-kinase inhibitors” (Karus Therapeutics Limited, priority 2015, dated 2019).

One series concerns the target T1, PI3K p110δ (Homo sapiens, UniProt O00329).
T1 construct: assay run at Proqinase GmbH
Put plainly: Ki determination, non-radiometric ADP-Glo assay (Proqinase GmbH). The class given is biochemical. An excerpt:
(§1) Biochemical activity against class I PI3K isoforms was confirmed by either Ki determination using the non-radiometric ADP-Glo™ assay (Promega, Madison, Wis., USA) at Proqinase GmbH, or IC50 determination using the HTRF biochemical assay at Reaction Biology Corp.

In a further series the target is T2, PI3K p110γ (Homo sapiens, UniProt P48736).
T2 construct: assay run at Proqinase GmbH
The series is described as above. The class given is biochemical.
Excerpt: as §1

In the next series the target is T3, PI3K p110β (Homo sapiens, UniProt P42338).
T3 construct: assay run at Proqinase GmbH
The series is described as above. The class given is biochemical.
Excerpt: as §1

For a further series, the target named is T4, PI3K p110α (Homo sapiens, UniProt P42336).
T4 construct: assay run at Proqinase GmbH
The series is described as above. In kind it is biochemical.
Excerpt: as §1

The nature of series [1]: Plasma PK of compound K of WO 2011/021038 in male Balb/c mice. Conditions: for F: PO 10 mg/kg vs IV 3 mg/kg, male Balb/c mouse. In kind it is in vivo, mouse. As to the method:
Animals in Group 1 were administered intravenously with compound K solution formulation in 5% NMP, 5% solutol HS-15 and 90% normal saline via tail vein at a dose of 3 mg/kg.
Animals in Group 2 were administered with oral solution formulation of compound K in 5% NMP, 5% solutol HS-15 and 90% normal saline at a dose of 10 mg/kg;
Dosing: 10 mg/kg P.O. and 3 mg/kg I.V.

Where [2] appears, read: IV, 3 mg/kg, male Balb/c mouse plasma.
Setting [3] is: PO, 10 mg/kg, male Balb/c mouse plasma.

T3 sequence (P42338 whole entry): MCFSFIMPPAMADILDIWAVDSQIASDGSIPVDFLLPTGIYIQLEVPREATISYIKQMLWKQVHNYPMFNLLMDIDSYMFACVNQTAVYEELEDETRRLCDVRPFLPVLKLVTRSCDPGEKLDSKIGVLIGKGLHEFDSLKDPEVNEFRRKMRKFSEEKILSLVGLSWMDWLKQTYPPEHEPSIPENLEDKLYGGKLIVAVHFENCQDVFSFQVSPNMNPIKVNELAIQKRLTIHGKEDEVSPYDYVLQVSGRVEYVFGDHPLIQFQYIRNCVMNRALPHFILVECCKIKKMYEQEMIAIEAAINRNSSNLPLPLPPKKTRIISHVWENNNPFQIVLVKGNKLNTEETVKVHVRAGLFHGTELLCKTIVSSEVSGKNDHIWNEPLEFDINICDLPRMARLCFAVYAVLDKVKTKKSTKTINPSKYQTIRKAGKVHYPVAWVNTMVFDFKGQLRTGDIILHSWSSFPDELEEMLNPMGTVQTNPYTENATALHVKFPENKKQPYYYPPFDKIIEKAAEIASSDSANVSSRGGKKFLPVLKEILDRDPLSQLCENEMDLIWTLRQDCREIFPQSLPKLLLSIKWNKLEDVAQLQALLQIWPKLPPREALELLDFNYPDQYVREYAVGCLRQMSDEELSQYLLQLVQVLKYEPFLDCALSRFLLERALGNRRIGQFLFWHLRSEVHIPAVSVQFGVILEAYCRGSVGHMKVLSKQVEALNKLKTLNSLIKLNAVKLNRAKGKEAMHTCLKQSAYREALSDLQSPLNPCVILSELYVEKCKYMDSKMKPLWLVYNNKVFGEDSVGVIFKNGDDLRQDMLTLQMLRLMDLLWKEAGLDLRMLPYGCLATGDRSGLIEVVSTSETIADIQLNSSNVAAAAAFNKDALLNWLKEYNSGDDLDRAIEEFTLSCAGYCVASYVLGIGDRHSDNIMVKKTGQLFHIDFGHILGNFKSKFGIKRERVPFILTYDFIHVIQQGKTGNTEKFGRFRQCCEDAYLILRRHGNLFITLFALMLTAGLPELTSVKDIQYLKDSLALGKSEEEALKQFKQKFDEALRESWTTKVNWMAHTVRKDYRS
T3 sequence (P27986 whole entry partner): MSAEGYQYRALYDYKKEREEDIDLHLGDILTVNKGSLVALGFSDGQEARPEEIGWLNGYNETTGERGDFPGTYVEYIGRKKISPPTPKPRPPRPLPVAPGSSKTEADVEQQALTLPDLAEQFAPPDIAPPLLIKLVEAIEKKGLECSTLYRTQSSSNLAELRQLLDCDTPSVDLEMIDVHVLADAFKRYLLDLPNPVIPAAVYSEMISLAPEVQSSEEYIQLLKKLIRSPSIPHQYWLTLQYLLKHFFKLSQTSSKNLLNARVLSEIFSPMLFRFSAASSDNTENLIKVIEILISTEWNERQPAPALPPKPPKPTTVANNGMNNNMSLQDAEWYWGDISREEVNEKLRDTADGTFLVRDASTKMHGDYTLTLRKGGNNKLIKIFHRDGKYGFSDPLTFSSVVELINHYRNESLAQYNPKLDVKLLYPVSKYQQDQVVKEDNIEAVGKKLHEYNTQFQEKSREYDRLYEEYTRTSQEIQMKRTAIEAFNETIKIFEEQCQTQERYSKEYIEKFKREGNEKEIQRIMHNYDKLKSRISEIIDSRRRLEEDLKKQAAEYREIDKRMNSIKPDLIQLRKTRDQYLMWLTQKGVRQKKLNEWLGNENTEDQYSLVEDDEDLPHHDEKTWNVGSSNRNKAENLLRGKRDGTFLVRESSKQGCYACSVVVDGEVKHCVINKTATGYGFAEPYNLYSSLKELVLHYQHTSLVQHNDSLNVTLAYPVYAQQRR
T1 sequence (O00329 whole entry): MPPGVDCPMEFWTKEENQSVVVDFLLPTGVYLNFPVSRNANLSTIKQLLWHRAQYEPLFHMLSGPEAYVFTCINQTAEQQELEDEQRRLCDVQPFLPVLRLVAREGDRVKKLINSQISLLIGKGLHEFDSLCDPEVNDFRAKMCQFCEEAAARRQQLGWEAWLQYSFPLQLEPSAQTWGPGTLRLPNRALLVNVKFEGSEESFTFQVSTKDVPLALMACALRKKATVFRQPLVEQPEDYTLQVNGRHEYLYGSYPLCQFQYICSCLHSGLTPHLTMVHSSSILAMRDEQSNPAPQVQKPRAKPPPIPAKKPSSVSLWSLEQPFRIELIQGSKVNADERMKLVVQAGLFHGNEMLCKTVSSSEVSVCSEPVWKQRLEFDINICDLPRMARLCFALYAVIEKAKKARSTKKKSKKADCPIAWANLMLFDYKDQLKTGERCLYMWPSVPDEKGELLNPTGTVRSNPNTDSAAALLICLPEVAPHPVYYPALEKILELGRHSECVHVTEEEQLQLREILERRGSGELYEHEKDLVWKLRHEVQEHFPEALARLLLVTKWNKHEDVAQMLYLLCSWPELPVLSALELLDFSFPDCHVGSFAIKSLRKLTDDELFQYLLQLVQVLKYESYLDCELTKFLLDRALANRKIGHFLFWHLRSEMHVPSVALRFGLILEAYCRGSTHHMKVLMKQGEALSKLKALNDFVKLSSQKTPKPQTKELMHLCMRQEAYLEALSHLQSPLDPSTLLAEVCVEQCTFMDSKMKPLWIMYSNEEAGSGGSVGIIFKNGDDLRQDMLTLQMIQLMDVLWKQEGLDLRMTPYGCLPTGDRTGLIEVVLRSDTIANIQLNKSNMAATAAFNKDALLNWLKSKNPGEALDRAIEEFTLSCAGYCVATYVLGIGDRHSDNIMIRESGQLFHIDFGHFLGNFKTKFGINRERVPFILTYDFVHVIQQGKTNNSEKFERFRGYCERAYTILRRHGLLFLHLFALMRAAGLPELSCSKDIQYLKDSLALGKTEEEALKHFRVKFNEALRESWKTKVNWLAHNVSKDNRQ
T1 sequence (P27986 whole entry partner): as the sequence (P27986 whole entry partner) above
T2 sequence (P48736 whole entry): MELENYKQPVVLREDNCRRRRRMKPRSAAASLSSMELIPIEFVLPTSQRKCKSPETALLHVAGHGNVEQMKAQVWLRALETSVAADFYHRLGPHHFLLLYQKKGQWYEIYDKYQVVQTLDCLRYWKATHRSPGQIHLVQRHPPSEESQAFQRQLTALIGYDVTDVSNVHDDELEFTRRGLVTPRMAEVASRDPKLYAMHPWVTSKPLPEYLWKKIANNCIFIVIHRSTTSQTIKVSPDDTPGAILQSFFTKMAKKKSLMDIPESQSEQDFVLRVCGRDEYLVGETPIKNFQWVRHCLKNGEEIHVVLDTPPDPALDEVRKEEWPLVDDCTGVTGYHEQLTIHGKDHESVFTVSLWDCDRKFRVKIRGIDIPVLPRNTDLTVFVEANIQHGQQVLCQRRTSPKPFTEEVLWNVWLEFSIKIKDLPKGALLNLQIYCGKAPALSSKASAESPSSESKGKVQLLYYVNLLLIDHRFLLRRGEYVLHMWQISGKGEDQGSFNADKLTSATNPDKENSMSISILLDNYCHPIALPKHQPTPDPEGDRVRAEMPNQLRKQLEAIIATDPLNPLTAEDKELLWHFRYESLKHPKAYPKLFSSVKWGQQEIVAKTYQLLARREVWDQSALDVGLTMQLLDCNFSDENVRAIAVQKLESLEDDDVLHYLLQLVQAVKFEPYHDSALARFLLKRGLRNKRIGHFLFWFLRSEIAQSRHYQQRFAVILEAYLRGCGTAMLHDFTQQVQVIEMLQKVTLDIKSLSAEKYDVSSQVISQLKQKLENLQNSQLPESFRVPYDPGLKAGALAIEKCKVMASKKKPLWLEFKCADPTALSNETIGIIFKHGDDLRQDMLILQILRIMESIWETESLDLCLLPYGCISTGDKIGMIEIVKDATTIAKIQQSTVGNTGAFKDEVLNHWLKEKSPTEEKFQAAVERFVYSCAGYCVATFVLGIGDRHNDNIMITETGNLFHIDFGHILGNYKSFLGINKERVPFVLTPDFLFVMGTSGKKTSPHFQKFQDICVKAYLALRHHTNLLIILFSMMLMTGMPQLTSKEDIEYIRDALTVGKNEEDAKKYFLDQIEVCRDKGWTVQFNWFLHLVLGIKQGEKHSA
T4 sequence (P42336 whole entry): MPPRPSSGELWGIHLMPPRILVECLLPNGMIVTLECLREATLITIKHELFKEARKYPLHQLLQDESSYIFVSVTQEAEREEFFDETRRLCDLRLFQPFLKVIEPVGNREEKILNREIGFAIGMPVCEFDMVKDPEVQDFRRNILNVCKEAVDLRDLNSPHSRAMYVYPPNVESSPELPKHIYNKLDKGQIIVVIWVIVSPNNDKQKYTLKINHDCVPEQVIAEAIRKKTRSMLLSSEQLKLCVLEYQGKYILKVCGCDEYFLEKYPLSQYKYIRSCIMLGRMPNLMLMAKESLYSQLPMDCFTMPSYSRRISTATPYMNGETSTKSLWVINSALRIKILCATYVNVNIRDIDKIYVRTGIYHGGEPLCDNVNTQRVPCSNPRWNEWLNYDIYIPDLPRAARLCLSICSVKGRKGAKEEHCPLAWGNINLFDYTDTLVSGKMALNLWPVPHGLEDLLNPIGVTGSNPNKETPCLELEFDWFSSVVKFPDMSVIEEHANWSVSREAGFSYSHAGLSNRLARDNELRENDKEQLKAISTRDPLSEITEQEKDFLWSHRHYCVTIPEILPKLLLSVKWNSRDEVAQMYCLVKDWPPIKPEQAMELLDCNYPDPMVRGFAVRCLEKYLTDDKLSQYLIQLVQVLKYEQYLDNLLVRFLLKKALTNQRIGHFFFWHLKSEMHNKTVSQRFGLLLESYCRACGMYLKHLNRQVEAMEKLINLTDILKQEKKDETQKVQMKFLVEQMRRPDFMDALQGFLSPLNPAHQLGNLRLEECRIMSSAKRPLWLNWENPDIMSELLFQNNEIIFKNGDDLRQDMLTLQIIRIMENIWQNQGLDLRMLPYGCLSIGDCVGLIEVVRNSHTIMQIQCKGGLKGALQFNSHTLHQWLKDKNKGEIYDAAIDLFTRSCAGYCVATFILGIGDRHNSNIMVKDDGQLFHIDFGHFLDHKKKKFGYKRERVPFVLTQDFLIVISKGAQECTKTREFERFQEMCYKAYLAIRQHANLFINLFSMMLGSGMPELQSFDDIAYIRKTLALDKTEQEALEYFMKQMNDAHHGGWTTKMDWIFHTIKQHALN
T4 sequence (P27986 whole entry partner): as the sequence (P27986 whole entry partner) above

For the compound `c1cc(-c2nc(N3CCOCC3)c3oc4ncc(CN5C[C@@H]6C[C@H]5CS6)cc4c3n2)c2cc[nH]c2c1` [Example J, 4-(1H-Indol-4-yl)-6-(morpholin-4-yl)-12-[(1 S,4S)-2-thia-5-azabicyclo[2.2.1]heptan-5-ylmethyl]-8-oxa-3,5,10-triazatricyclo[7.4.0.0^2,7]trideca-1(13),2,4,6,9,11-hexaene], the Ki was not above 500 nM at PI3K p110δ, more than 10000 nM on PI3K p110γ, not above 500 nM on PI3K p110β and 1000 to 10000 nM on PI3K p110α.
On to `O=S1(=O)C[C@@H]2C[C@H]1CN2Cc1cnc2oc3c(N4CCOCC4)nc(-c4cccc5[nH]ccc45)nc3c2c1` [Example K, (1S,4S)-5-{[4-(1H-Indol-4-yl)-6-(morpholin-4-yl)-8-oxa-3,5,10-triazatricyclo[7.4.0.0^2,7]trideca-1(13),2,4,6,9,11-hexaen-12-yl]methyl}-2λ^6-thia-5-azabicyclo[2.2.1]heptane-2,2-dione], for which the Ki was not above 500 nM on PI3K p110δ, more than 10000 nM at PI3K p110γ, not above 500 nM at PI3K p110β and 1000 to 10000 nM on PI3K p110α.
With `[O-][S+]1CC2CC1CN2Cc1cnc2oc3c(N4CCOCC4)nc(-c4cccc5[nH]ccc45)nc3c2c1` [Example L, (1S,2R,4S)-5-{([4-(1H-Indol-4-yl)-6-(morpholin-4-yl)-8-oxa-3,5,10-triazatricyclo[7.4.0.0^2,7]trideca-1(13),2,4,6,9,11-hexaen-12-yl]methyl}-2-thia-5-azabicyclo[2.2.1]heptan-2-ium-2-olate], the Ki on PI3K p110δ is not above 500 nM; at PI3K p110γ, 1000 to 10000 nM; at PI3K p110β it was not above 500 nM; on PI3K p110α, 500 to 1000 nM.
Take `O=C1Cc2c(cccc2-c2nc(N3CCOCC3)c3oc4ncc(CN5CC[S+]([O-])CC5)cc4c3n2)N1` [Example N, 4-[6-(morpholin-4-yl)-12-[(1-oxo-1λ^4-thiomorpholin-4-yl)methyl]-8-oxa-3,5,10-triazatricyclo[7.4.0.0^2,^7]trideca-1(13),2(7),3,5,9,11-hexaen-4-yl]-2,3-dihydro-1H-indol-2-one]: the Ki at PI3K p110δ, at PI3K p110γ, on PI3K p110β and on PI3K p110α was more than 10000 nM each time.
As for `[O-][S+]1CCN(Cc2cnc3oc4c(N5CCOCC5)nc(-c5cccc6c5CCN6)nc4c3c2)CC1` [Example O, 4-{[4-(2,3-Dihydro-1H-indol-4-yl)-6-(morpholin-4-yl)-8-oxa-3,5,10-triazatricyclo[7.4.0.0^2,7]trideca-1(13),2(7),3,5,9,11-hexaen-12-yl]methyl}-1λ^4-thiomorpholin-1-one], the Ki on PI3K p110δ is not above 500 nM; at PI3K p110γ, more than 10000 nM; on PI3K p110β it was not above 500 nM; at PI3K p110α, more than 10000 nM.
`Cc1ccc2[nH]ccc2c1-c1nc(N2CCOCC2)c2oc3ncc(CN4CC[S+]([O-])CC4)cc3c2n1` [Example P, 4-{[4-(5-Methyl-1H-indol-4-yl)-6-(morpholin-4-yl)-8-oxa-3,5,10-triazatricyclo[7.4.0.0^2,7]trideca-1(9),2,4,6,10,12-hexaen-12-yl]methyl}-1λ^4-thiomorpholin-1-one]: the Ki at PI3K p110δ is not above 500 nM; on PI3K p110γ, 1000 to 10000 nM; on PI3K p110β it was not above 500 nM; on PI3K p110α it was 1000 to 10000 nM.
Take `[O-][S+]1CCN(Cc2cnc3oc4c(N5CCOCC5)nc(-c5ccc(F)c6[nH]ccc56)nc4c3c2)CC1` [Example Q, 4-{[4-(7-Fluoro-1H-indol-4-yl)-6-(morpholin-4-yl)-8-oxa-3,5,10-triazatricyclo[7.4.0.0^2,7]trideca-1(13),2(7),3,5,9,11-hexaen-12-yl]methyl}-1λ^4-thiomorpholin-1-one]: the Ki at PI3K p110δ is not above 500 nM; at PI3K p110γ, more than 10000 nM; at PI3K p110β it was 1000 to 10000 nM; on PI3K p110α it was more than 10000 nM.
On to `N#Cc1cc(-c2nc(N3CCOCC3)c3oc4ncc(CN5CC[S+]([O-])CC5)cc4c3n2)c2cc[nH]c2c1` [Example R, 4-[6-(morpholin-4-yl)-12-[(1-oxo-1λ^4-thiomorpholin-4-yl)methyl]-8-oxa-3,5,10-triazatricyclo[7.4.0.0^2,^7]trideca-1(13),2(7),3,5,9,11-hexaen-4-yl]-1H-indole-6-carbonitrile], for which the Ki at PI3K p110δ, at PI3K p110γ, at PI3K p110β and on PI3K p110α was more than 10000 nM throughout.
As to `[O-][S+]1CCN(Cc2cnc3oc4c(N5CCOCC5)nc(-c5c(Cl)ccc6[nH]ccc56)nc4c3c2)CC1` [Example T, 4-{[4-(5-Chloro-1H-indol-4-yl)-6-(morpholin-4-yl)-8-oxa-3,5,10-triazatricyclo[7.4.0.0^2,7]trideca-1(9),2,4,6,10,12-hexaen-12-yl]methyl}-1λ^4-thiomorpholin-1-one], the Ki was not above 500 nM on PI3K p110δ, more than 10000 nM on PI3K p110γ, not above 500 nM on PI3K p110β and 1000 to 10000 nM on PI3K p110α.
Turning to `[O-][S+]1CCN(Cc2cnc3oc4c(N5CCOCC5)nc(-c5c(Cl)ccc6c5CCN6)nc4c3c2)CC1` [Example U, 4-{[4-(5-Chloro-2,3-dihydro-1H-indol-4-yl)-6-(morpholin-4-yl)-8-oxa-3,5,10-triazatricyclo[7.4.0.0^2,7]trideca-1(9),2,4,6,10,12-hexaen-12-yl]methyl}-1λ^4-thiomorpholin-1-one], the Ki on PI3K p110δ is not above 500 nM; on PI3K p110γ, more than 10000 nM; on PI3K p110β, 1000 to 10000 nM; at PI3K p110α it was more than 10000 nM.
In the case of `Cc1ccc2c(c1-c1nc(N3CCOCC3)c3oc4ncc(CN5CC[S+]([O-])CC5)cc4c3n1)CCN2` [Example V, 4-{[4-(5-Methyl-2,3-dihydro-1H-indol-4-yl)-6-(morpholin-4-yl)-8-oxa-3,5,10-triazatricyclo[7.4.0.0^2,7]trideca-1(9),2,4,6,10,12-hexaen-12-yl]methyl}-1λ^4-thiomorpholin-1-one], the Ki on PI3K p110δ is not above 500 nM; on PI3K p110γ, more than 10000 nM; on PI3K p110β it was 1000 to 10000 nM; at PI3K p110α it was more than 10000 nM.
As to `N#Cc1ccc2[nH]ccc2c1-c1nc(N2CCOCC2)c2oc3ncc(CN4CC[S+]([O-])CC4)cc3c2n1` [Example W, 4-[6-(morpholin-4-yl)-12-[(1-oxo-1λ^4-thiomorpholin-4-yl)methyl]-8-oxa-3,5,10-triazatricyclo[7.4.0.0^2,^7]trideca-1(9),2,4,6,10,12-hexaen-4-yl]-1H-indole-5-carbonitrile], the Ki on PI3K p110δ was not above 500 nM; on PI3K p110γ, more than 10000 nM; on PI3K p110β it was not above 500 nM; at PI3K p110α, not above 500 nM.
For the compound `O=C(O)c1ccc2[nH]ccc2c1-c1nc(N2CCOCC2)c2oc3ncc(CN4CC[S+]([O-])CC4)cc3c2n1` [Example X, 4-[6-(morpholin-4-yl)-12-[(1-oxo-1λ^4-thiomorpholin-4-yl)methyl]-8-oxa-3,5,10-triazatricyclo[7.4.0.0^2,^7]trideca-1(13),2(7),3,5,9,11-hexaen-4-yl]-1H-indole-5-carboxylic acid], the Ki on PI3K p110δ, on PI3K p110γ, at PI3K p110β and on PI3K p110α was more than 10000 nM throughout.
As to `CC(C)Oc1ccc2[nH]ccc2c1-c1nc(N2CCOCC2)c2oc3ncc(CN4CC[S+]([O-])CC4)cc3c2n1` [Example Y, 4-{[6-(Morpholin-4-yl)-4-[5-(propan-2-yloxy)-1H-indol-4-yl]-8-oxa-3,5,10-triazatricyclo[7.4.0.0^2^,7]trideca-1(9),2,4,6,10,12-hexaen-12-yl]methyl}-1λ^4-thiomorpholin-1-one], the Ki at PI3K p110δ was not above 500 nM; at PI3K p110γ it was 1000 to 10000 nM; at PI3K p110β it was not above 500 nM; at PI3K p110α, 500 to 1000 nM.
As to `[O-][S+]1CCN(Cc2cnc3oc4c(N5CCOCC5)nc(-c5c(OC(F)(F)F)ccc6[nH]ccc56)nc4c3c2)CC1` [Example Z, 4-{[6-(Morpholin-4-yl)-4-[5-(trifluoromethoxy)-1H-indol-4-yl]-8-oxa-3,5,10-triazatricyclo[7.4.0.0^2^,7]trideca-1(9),2,4,6,10,12-hexaen-12-yl]methyl}-1λ^4-thiomorpholin-1-one], the Ki on PI3K p110δ is not above 500 nM; at PI3K p110γ, 500 to 1000 nM; at PI3K p110β, not above 500 nM; on PI3K p110α, not above 500 nM.
On to `c1cc(-c2nc(N3CCOCC3)c3oc4ncc(CN5CCOCC5)cc4c3n2)c2cc[nH]c2c1` [compound K in WO 2011/021038], for which, in series [1] (setting [2]), the AUC(0-inf) is 2690 ng·h/mL, the AUClast came out at 2654.15 ng·mL·h, the Cmax was determined as 2980 ng/mL and the clearance was 18.6 mL/min/kg. Moreover, in series [1] (setting [2]), the half-life was 79.8 min. The Vd in series [1] (IV, 3 mg/kg, male Balb/c mouse plasma, read-out: Vss) is 1.81 L/kg. Besides, in series [1], the F was 55%. The same compound displayed a F in series [1] (listed as Example K from W02011/021038 (comparative)) of 50%. Further, in series [1] (setting [3]), the AUC(0-inf) is 5140 ng·h/mL, the AUC(0-t) is 4890 ng·h/mL, the Cmax stood at 1720 ng/mL and the Tmax was found to be 15 min.

For orientation: Ki means a dissociation constant, usually derived from enzyme kinetics or from competition with a known ligand. A higher Ki goes with lower affinity. One may read the AUC(0-inf) as total exposure, with the tail of the curve extrapolated. Low readings indicate low exposure, high ones high exposure. In general, Cmax refers to the highest concentration seen after dosing. The term clearance denotes the volume of plasma or blood freed of the substance per unit of time. A high value points to efficient removal. What is called half-life is the time needed for the level to fall by half in the phase considered. Lower therefore signals fast loss. As a reminder, the AUC(0-t) is exposure summed from dosing to a finite time, without extrapolation to infinity. Read a low AUC(0-t) as low exposure. Usually Tmax stands for the time from dosing to the highest level.
